Organism: Rattus norvegicus
Test: DrugMatrix - Regimen: Daily Repeat
Format: toxicity, organism-based, Sprague-Dawley
Design: regimen Daily Repeat, gender Male, age 6-8 weeks
Settings: in vivo, iv, vehicle 100 % SALINE; for ABSOLUTE BASOPHIL / ABSOLUTE EOSINOPHIL / ABSOLUTE LYMPHOCYTE / ABSOLUTE MONOCYTE / ABSOLUTE SEGMENTED NEUTROPHIL / BASOPHIL / EOSINOPHIL / ERYTHROCYTE COUNT / HEMATOCRIT / HEMOGLOBIN / LEUKOCYTE COUNT / LYMPHOCYTE / MEAN CORPUSCULAR HEMOGLOBIN / MEAN CORPUSCULAR HEMOGLOBIN CONCENTRATION / MEAN CORPUSCULAR VOLUME / MONOCYTE / NEUTROPHIL / NUCLEATED RED BLOOD CELLS / PLATELET COUNT: tissue Blood; for ALANINE AMINOTRANSFERASE / ALBUMIN / ALKALINE PHOSPHATASE / ASPARTATE AMINOTRANSFERASE / BLOOD UREA NITROGEN / CARBON DIOXIDE / CHLORIDE / CHOLESTEROL / CREATINE PHOSPHOKINASE / CREATININE / GLUCOSE / LACTATE DEHYDROGENASE / LIPASE / PHOSPHORUS / POTASSIUM / SODIUM / TOTAL BILIRUBIN / TOTAL PROTEIN / URIC ACID: tissue Plasma
[1] = 200 mg/kg, 120 h, dose level Low, time 5 day
[2] = 800 mg/kg, 72 h, dose level High, time 3 day
[3] = 800 mg/kg, 120 h, dose level High, time 5 day

CC1(C)S[C@@H]2[C@H](NC(=O)[C@H](NC(=O)N3CCNC3=O)c3ccccc3)C(=O)N2[C@H]1C(=O)O [AZLOCILLIN]
ABSOLUTE BASOPHIL [1]: 0 CELLS/uL
ABSOLUTE EOSINOPHIL [1]: 0 CELLS/uL
ABSOLUTE LYMPHOCYTE [1]: 10606.67 CELLS/uL
ABSOLUTE MONOCYTE [1]: 46.67 CELLS/uL
ABSOLUTE SEGMENTED NEUTROPHIL [1]: 980 CELLS/uL
BASOPHIL [1]: 0%
EOSINOPHIL [1]: 0%
ERYTHROCYTE COUNT [1]: 5.98 x10E6/uL
HEMATOCRIT [1]: 35.9%
HEMOGLOBIN [1]: 14.17 G/DL
LEUKOCYTE COUNT [1]: 11.63 x10E3/uL
LYMPHOCYTE [1]: 91.33%
MEAN CORPUSCULAR HEMOGLOBIN [1]: 23.7 pg
MEAN CORPUSCULAR HEMOGLOBIN CONCENTRATION [1]: 39.5 G/DL
MEAN CORPUSCULAR VOLUME [1]: 60.07 fL
MONOCYTE [1]: 0.33%
NEUTROPHIL [1]: 8.33%
NUCLEATED RED BLOOD CELLS [1]: 0.33 /100WBC
PLATELET COUNT [1]: 1262 x10E3/uL
ALANINE AMINOTRANSFERASE [1]: 76 u/L
ALBUMIN [1]: 4.17 G/DL
ALKALINE PHOSPHATASE [1]: 302.33 u/L
ASPARTATE AMINOTRANSFERASE [1]: 91.67 u/L
BLOOD UREA NITROGEN [1]: 17.67 mg/dL
CARBON DIOXIDE [1]: 25.67 mmol/L
CHLORIDE [1]: 101 MEQ/L
CHOLESTEROL [1]: 73 mg/dL
CREATINE PHOSPHOKINASE [1]: 333.33 u/L
CREATININE [1]: 0.19 mg/dL
GLUCOSE [1]: 172.67 mg/dL
LACTATE DEHYDROGENASE [1]: 301 u/L
LIPASE [1]: 9.33 u/L
PHOSPHORUS [1]: 11.1 mg/dL
POTASSIUM [1]: 5.74 MEQ/L
SODIUM [1]: 144.37 MEQ/L
TOTAL BILIRUBIN [1]: 0.13 mg/dL
TOTAL PROTEIN [1]: 6.33 G/DL
URIC ACID [1]: 1.6 mg/dL
ABSOLUTE BASOPHIL [2]: 0 CELLS/uL
ABSOLUTE EOSINOPHIL [2]: 64.67 CELLS/uL
ABSOLUTE LYMPHOCYTE [2]: 11014.33 CELLS/uL
ABSOLUTE MONOCYTE [2]: 68.67 CELLS/uL
ABSOLUTE SEGMENTED NEUTROPHIL [2]: 1119 CELLS/uL
BASOPHIL [2]: 0%
EOSINOPHIL [2]: 0.33%
ERYTHROCYTE COUNT [2]: 5.5 x10E6/uL
HEMATOCRIT [2]: 34.53%
HEMOGLOBIN [2]: 13.63 G/DL
LEUKOCYTE COUNT [2]: 12.27 x10E3/uL
LYMPHOCYTE [2]: 90.67%
MEAN CORPUSCULAR HEMOGLOBIN [2]: 24.87 pg
MEAN CORPUSCULAR HEMOGLOBIN CONCENTRATION [2]: 39.5 G/DL
MEAN CORPUSCULAR VOLUME [2]: 62.9 fL
MONOCYTE [2]: 0.67%
NEUTROPHIL [2]: 8.33%
NUCLEATED RED BLOOD CELLS [2]: 0 /100WBC
PLATELET COUNT [2]: 1200 x10E3/uL
ALANINE AMINOTRANSFERASE [2]: 47.33 u/L
ALBUMIN [2]: 4.13 G/DL
ALKALINE PHOSPHATASE [2]: 350 u/L
ASPARTATE AMINOTRANSFERASE [2]: 79.33 u/L
BLOOD UREA NITROGEN [2]: 15.67 mg/dL
CARBON DIOXIDE [2]: 32.67 mmol/L
CHLORIDE [2]: 98.33 MEQ/L
CHOLESTEROL [2]: 83 mg/dL
CREATINE PHOSPHOKINASE [2]: 313.33 u/L
CREATININE [2]: 0.15 mg/dL
GLUCOSE [2]: 135.67 mg/dL
LACTATE DEHYDROGENASE [2]: 118 u/L
LIPASE [2]: 9.67 u/L
PHOSPHORUS [2]: 10.5 mg/dL
POTASSIUM [2]: 6.4 MEQ/L
SODIUM [2]: 143.1 MEQ/L
TOTAL BILIRUBIN [2]: 0.23 mg/dL
TOTAL PROTEIN [2]: 5.9 G/DL
URIC ACID [2]: 1.33 mg/dL
ABSOLUTE BASOPHIL [3]: 0 CELLS/uL
ABSOLUTE EOSINOPHIL [3]: 0 CELLS/uL
ABSOLUTE LYMPHOCYTE [3]: 11750 CELLS/uL
ABSOLUTE MONOCYTE [3]: 375 CELLS/uL
ABSOLUTE SEGMENTED NEUTROPHIL [3]: 375 CELLS/uL
BASOPHIL [3]: 0%
EOSINOPHIL [3]: 0%
ERYTHROCYTE COUNT [3]: 6.36 x10E6/uL
HEMATOCRIT [3]: 36.8%
HEMOGLOBIN [3]: 14.2 G/DL
LEUKOCYTE COUNT [3]: 12.5 x10E3/uL
LYMPHOCYTE [3]: 94%
MEAN CORPUSCULAR HEMOGLOBIN [3]: 22.3 pg
MEAN CORPUSCULAR HEMOGLOBIN CONCENTRATION [3]: 38.6 G/DL
MEAN CORPUSCULAR VOLUME [3]: 57.9 fL
MONOCYTE [3]: 3%
NEUTROPHIL [3]: 3%
NUCLEATED RED BLOOD CELLS [3]: 0 /100WBC
PLATELET COUNT [3]: 1139 x10E3/uL
ALANINE AMINOTRANSFERASE [3]: 42 u/L
ALBUMIN [3]: 3.7 G/DL
ALKALINE PHOSPHATASE [3]: 225 u/L
ASPARTATE AMINOTRANSFERASE [3]: 68 u/L
BLOOD UREA NITROGEN [3]: 22 mg/dL
CARBON DIOXIDE [3]: 25 mmol/L
CHLORIDE [3]: 102 MEQ/L
CHOLESTEROL [3]: 82 mg/dL
CREATINE PHOSPHOKINASE [3]: 168 u/L
CREATININE [3]: 0.27 mg/dL
GLUCOSE [3]: 198 mg/dL
LACTATE DEHYDROGENASE [3]: 104 u/L
LIPASE [3]: 9 u/L
PHOSPHORUS [3]: 10.1 mg/dL
POTASSIUM [3]: 5.6 MEQ/L
SODIUM [3]: 144.4 MEQ/L
TOTAL BILIRUBIN [3]: 0.2 mg/dL
TOTAL PROTEIN [3]: 6.1 G/DL
URIC ACID [3]: 2.2 mg/dL
